The subject of data set [1] is platelets in dog whole blood. In words: Platelet aggregation in whole blood (Chronolog whole blood aggregometer).
Description: (§5) Briefly, whole citrated blood is diluted 1:2 with sterile saline and placed in a warm chamber with a mini stir bar. An electronic probe, measuring electrical resistance, is inserted in the sample. The aggregometer is calibrated and the baseline is observed to detect any spontaneous aggregation. The test sample is added and allowed to run for at least 6 minutes. If the sample is an agonist the platelets will start to aggregate and stick to the electronic probe causing resistance across the electrodes to increase. This resistance, in ohms, is measured 6 minutes post addition of sample. The test samples are run at 25, 100, 200, 400 and 800 uM and compared to 100 uM L-ET-18-OCH3.
(§6) Collection of Blood Sample for in vitro Platelet Aggregation Testing: Venous blood is collected in 4.5 mL Vacutainer tubes containing 0.129 M sodium citrate using a 21G needle or larger. Blood is immediately mixed by gentle inversion 15-20 times and kept at room temperature. Dilution ratio is 1 to 9 (3.8% citrate solution:blood). One (2.0 mL) Vacutainer tube containing EDTA is also collected for platelet counts. Complete blood counts (CBC) are measured on the CDC Technologies Hemavet 1500 to ensure that the test subject's platelets are within normal range. Amy vials of hemolytic blood or blood containing any clots should be discarded. Platelet aggregation testing must be completed within 3 hours of blood collection. After this time the ability of platelets to aggregate decreases.
(§7) Dilutions were prepared in PBS or saline at 40× concentration. (25 uL test sample are added to 1000 uL diluted blood (1:40)).
Data set [2] deals with WI38. The note with it: WI38 normal human fibroblast cell line, 3 days. The text has this: (§1) The following cell lines were selected from the cell bank for screening and GI50 studies: MCF-7: human breast tumor, MCF-7/ADR: MCF-7 adriamycin resistant subline, HT-29: human colon carcinoma, A-549: human non-small cell lung cancer, NIH-3T3: mouse Swiss embryo fibroblast and WI-38: human lung fibroblast, SKMEL-28: human melanoma, Lewis Lung: mouse lung carcinoma, DU-145: prostate carcinoma, B16F10: mouse melanoma, L1210: murine lymphocytic leukemia, P-388: murine leukemia, U-937: human histolytic lymphoma. Except HT-29, WI-38, NIH-3T3 and Lewis Lung which were obtained from the American Type Culture Collection (Rockville, Md.) all the other cell lines were obtained from National Cancer Institute—Frederick Research Facility (Frederick, Md.). All the cell lines were grown in RPMI-1640 medium containing 10% fetal bovine serum (FBS) except WI-38 and DU-145 which were grown in EMEM+10% FBS at 37° C., 5% CO2 and 100% humidity and NIH-3T3, Lewis Lung, B16F10 and L1210 which were grown in DMEM containing 10% FBS (10% HS for L1210). All the adherent cell lines were detached from the culture flasks by addition of 2-3 ml of 0.05% trypsin-EDTA. Thereafter, trypsin was inactivated by addition of 10 mL of 10% serum-containing RPMI-1640 medium. Cells were separated into a single-cell suspension by gentle pipetting action. Depending on the cell type, 3,6000 to 10,000 cells were plated onto 96-well plates a day prior to the drug treatment, in a volume of 100 μl per well.
(§2) The test compounds were made in-house and the compounds were dissolved PBS or saline at a stock concentration of approximately 20 mM, which is 400 times the desired final maximum test concentration. The stock solutions were then diluted with complete medium to twice the desired final concentration. 100 μl aliquots of each dilution was then added to the designated wells. After 3 days of incubation, cell growth was determined.
(§3) The SRB assay was performed as described by Monks, A., Scudiero, D., Skehan, P., Shoemaker, R., Paull, K., Vistica, D., Hose, C., Langley, J., Cronise, P., and Vaigro-Wolff, A. Feasibility of a high-flux anticancer drug screen using a diverse panel of cultured human tumo-r cell lines. J Natl Cancer Inst, 83: 757-766, 1991 with minor modifications. Following drug treatment, cells were fixed with 50 μl of cold 50% (wt/vol) trichloroacetic acid (TCA) for 60 minutes at 4° C. The supernatant was discarded, and the plates were washed six times with deionized water and then air dried. The precipitate was stained with 100 μl SRB solution (0.4% wt/vol in 1% acetic acid) for 10 minutes at room temperature, and free SRB was removed by washing three times with 1% acetic acid, and the plates were then air dried. Bound SRB was solubilized with Tris buffer (10 mM), and the ODs were read using an automated plate reader (Bio-Rad, Model 3550-UV) at 490 nm. Background values were subtracted from the test data, and the data was calculated as a % of control. […] Percentage growth was calculated as described by, Peters, A. C., Ahmad, I., Janoff, A. S., Pushkareva, M. Y., and Mayhew, E. Growth Inhibitory effects of liposome-associated 1-o-octadecyl-2-o-methyl-sn-glycero-3-phosphocholine. Lipids, 32:1045-1054, 1997. The raw optical density data Was imported into an Excel spreadsheet to determine dose responses. […] By varying drug concentration,-dose response curves were generated and the GI-50 values were calculated. The GI50 values for each experiment were calculated using data obtained from three duplicate wells on two separate plates.
(§4) For growth inhibitory evaluation, we used five human tumor cell lines (U937; HT29; A549; MCF7; MCF7/ADR) and two normal fibroblast cell lines (NIH-3T3, murine; WI-38, human).

Data set [3] deals with platelets in dog whole blood.
Description: as §5, §6, §7
Data set [4] has as its system MCF7/ADR. The experiment in a line: In vitro growth inhibition (GI50), SRB assay. The class given is cell-based, human. The note with it: MCF7/ADR tumor cell line, 3 days.
Description: as §1, §2, §3, §4
(Sulforhodamine B stains cellular protein and so reports cell mass.)

In data set [5] the test system is A549. The experiment in a line: In vitro growth inhibition (GI50), SRB assay. In kind it is cell-based, human. The note with it: A549 tumor cell line, 3 days.
Description: as §1, §2, §3, §4

In data set [6] the test system is MCF7. In words: In vitro growth inhibition (GI50), SRB assay. The class given is cell-based, human. To be noted: MCF7 tumor cell line, 3 days.
Description: as §1, §2, §3, §4

Data set [7] relates to HT29. In words: In vitro growth inhibition (GI50), SRB assay. To be noted: HT29 tumor cell line, 3 days. In kind it is cell-based, human.
Description: as §1, §2, §3, §4

Data set [8] relates to NIH-3T3. In words: In vitro growth inhibition (GI50), SRB assay, normal fibroblast. In kind it is cell-based, mouse. To be noted: NIH-3T3 normal murine fibroblast cell line, 3 days.
Description: as §1, with “All the adherent cell lines were detached from the culture flasks by addition of 2-3 ml of 0.05% trypsin-EDTA. Thereafter, trypsin was inactivated by addition of 10 mL of 10% serum-containing RPMI-1640 medium. Cells were separated into a single-cell suspension by gentle pipetting action. Depending on the cell type, 3,6000 to 10,000 cells were plated onto 96-well plates a day prior to the drug treatment, in a volume of 100 μl per well.” left out
The test compounds were made in-house and the compounds were dissolved PBS or saline at a stock concentration of approximately 20 mM, which is 400 times the desired final maximum test concentration. […] After 3 days of incubation, cell growth was determined.
The SRB assay was performed as described by Monks, A., Scudiero, D., Skehan, P., Shoemaker, R., Paull, K., Vistica, D., Hose, C., Langley, J., Cronise, P., and Vaigro-Wolff, A. Feasibility of a high-flux anticancer drug screen using a diverse panel of cultured human tumo-r cell lines. […] Bound SRB was solubilized with Tris buffer (10 mM), and the ODs were read using an automated plate reader (Bio-Rad, Model 3550-UV) at 490 nm. Background values were subtracted from the test data, and the data was calculated as a % of control. […] Percentage growth was calculated as described by, Peters, A. C., Ahmad, I., Janoff, A. S., Pushkareva, M. Y., and Mayhew, E. Growth Inhibitory effects of liposome-associated 1-o-octadecyl-2-o-methyl-sn-glycero-3-phosphocholine. […]

Data set [9] deals with U937. In words: In vitro growth inhibition (GI50), cell growth assay. In kind it is cell-based, human. The note with it: U937 tumor cell line, 3 days. The protocol: After 3 days of incubation, cell growth was determined.
To determine the Growth Inhibition in the suspension cell lines, cell numbers were directly counted instead of using the SRB assay which determines the total cell protein. One day prior to the drug treatment, 40,000 cells per well were seeded into 24-well plates in a volume of 0.5 mL. Stock solutions were diluted with complete medium to twice the desired final concentrations, and then 0.5 mL aliquots of each dilution were added to the designated wells. After 3 days incubation, cell growth was determined by counting cell number using a coulter counter (Z-M, coulter). Cell counts were-also taken at time 0 and subtracted from the test results to give net growth.

The test system of data set [10] is whole human blood. The experiment in a line: Hemolysis assay with whole human blood. The protocol:
Venous blood was collected in 10 mL Vacutainer tubes containing EDTA using a 21G needle or larger.
Stock solutions of 20 mM test sample in phosphate buffered saline (PBS) were prepared as follows:
Then 270 uL of whole blood was aliquotted in duplicate mini test tubes using positive displacement pipet. Next, 30 uL of each working stock solution, in duplicate, was added to the whole blood. Next, 30 uL of PBS was added for background control. The samples were capped or sealed with Parafilm and gently mixed. The blood was incubated at 37° C. in gentle rotating water bath for 30 minutes. Final concentration of test sample was 10% of working stock solution.
Total hemolysis samples of 1,% and 10% whole blood samples in deionized water were prepared as follows:
The samples were freeze thawed 3× in liquid nitrogen then wafer bath. The samples were then centrifuged 10 minutes at 1500 RPM. Next, 100 uL of supernatant was transferred to a cuvette and 1 mL deionized water was added. The absorbance was read at 550 nm vs. water blank.
H10 and H50 were calculated by graphing Percent Total Hemolysis vs. Test Sample Concentration. The Percent Total Henolysis=(average o.d of test sample)/(average o.d. of total hemolysis sample)×100

Data set [11] has as its system DEVDase activity (Caspase 3) in Jurkat T cells. In words: DEVDase activity in Jurkat T cells. The class given is cell-based. To be noted: Jurkat T cells, 6 hours. As for the experimental part: Suspension cells were seeded at density 3.2×10^5 cells per mL in RPMI-1640 medium (Bio-Whittaker) supplemented with 10% heat inactivated FBS (Bio-Whittaker). Cells were pre-incubated overnight prior to treatment with the ether lipid compounds of the invention. At treatment time cell density was 5×10^5 cells per mL. Cells were incubated with the ether lipid compounds of the invention for various periods of time, usually 6 hours. Cells were collected, washed with 1×DPBS and resuspended in 110 μl of Buffer A (10 mM BEPES-KOH, pH 7.4, 2 mM EDTA, 0.1% CHAPS, 5 mM DTT, 1:100 dilution of protease inhibitors cocktail (Sigma)-DTT and protease inhibitors should be added just before use). After 10 min incubation on ice in order to lyse cells, samples were frozen on dry ice/ethanol and kept at −20° C. until analysis.
At the time of analysis of DEVDase activity frozen pellets were kept on ice until thawed and after vigorous vortexing samples were centrifuged at 14,000 rpm for 6 min.; Supernatant was transferred into another tube and 2 μl, in triplicates, were used for protein measurement using Bradford reagent (Bio-Rad).
Measurement of DEVDase activity was carried out in 100 μl volume, where 10 μg of protein was delivered in 50 μl of Buffer A and 40 μM of substrate Ac-DEVD-AMC was also delivered in 50 μl of Buffer A. All measurements were done in triplicates. Reaction was carried out for 1 hour and generation of fluorescent product of reaction (aminomethylcoumarin) was measured by reading fluorescence at 1em 460 nm (1ex 360 nm). Changes in DEVDase activity were calculated after subtraction of background fluorescence of substrate incubated without proteins, and were expressed as percent of control (DEVDase activity in untreated cells). Average of DEVDase activity, calculated from few independent experiments, was used to calculate percent of L-ether lipid-induced DEVDase activity.

Several values for one entry are separate records, joined by “and”; a condition that tells them apart may be missing. Equal entries are not always repeated. Entries after “also recorded” stand apart in the source; their conditions may differ. Where two headings read alike, the source gives them in different places.

Regarding `CCCCCCCCCCCCCCCCCCOC[C@@H](N)COP(=O)([O-])OCC[N+](C)(C)C` [9(R)], the “platelet aggregation response (in words)” value in [1] is given as “clear platelet aggregation response; also recorded: elicited a platelet aggregation response”. Further, the “Relative Platelet Aggregation (Ohms)” value is recorded as 8 Ohms in data set [1] (25 μM), 16 Ohms in [1] (100 μM), 10 Ohms in [1] (400 μM) and 0 Ohms in [1] (800 μM).

On to `CCCCCCCCCCCCCCCCCCOCC(COP(=O)([O-])OCC[N+](C)(C)C)OC` [L-ET18OCH3, 1-O-octadecyl-2-O-methyl-glycerophosphocholine, reference compound], for which the GI50 (in general, the concentration at which growth is held to half of that of the control) is 10 to 12.8 µM in data set [2]; at least 25.7 µM in [4]; 6.5 to 9.1 µM in data set [5]; 9.7 to 18.6 µM in data set [6]; 5.5 µM and 6 µM in data set [7]; 46.6 µM in data set [8]. Moreover, the GI50 in [9] lay within 1 to 1.5 µM. In data set [3], the Platelet aggregation result is “+++”. For the same molecule, the “platelet aggregation response (in words)” value in [3] is reported as “elicits a platelet-aggregation response”. Also, the H50 in data set [10] is recorded as 2000, >2000 μM. The entries for the “% L-ET18OCH3 (DEVDase, 6 hrs)” value in data set [11] (10 μM ether lipid), in data set [11] (20 μM ether lipid) and in [11] (30 μM ether lipid) were 100 ± 8.8%, 100 ± 10.4% and 100 ± 9.3%, respectively.
